Reference: patent US20080318942A1, “Fredericamycin Derivatives” (BIOAGENCY AG, priority 2005, published 2008)

Tested on: human breast cancer cell line MCF7
Experiment: Efficacy of the compounds on the survival of tumor cells (cytotoxic effect, cell-titer Glo luminescence)
Format: cell-based
Settings: 48 hours incubation with compound (2.4 nM to 10,000 nM), inhibition of cell survival
Experimental: The effect of the compounds on the survival of the human breast cancer cell line MCF7 was measured.
The cell line was analyzed at 37° C. [98.6° F.], 95% humidity and 5% CO2 in RPMI Medium (Cambrex).
The cells are inoculated in a 96-well microtiter plate (Costar) at an initial density of 2400 cells per well and cultivated for 24 hours.
The compounds are dissolved in DMSO, diluted with cell medium and added to the wells.
The cells are incubated for another 48 hours at a concentration of the compounds between 2.4 nM and 10,000 nM at a volume of 50 μl.
50 μl of cell-titer Glo (Promega) are added to each well and the microtiter plate is incubated for 2 minutes at room temperature on a shaker and then left standing in the dark for 10 minutes.
The luminescence is measured with a microplate reader and is proportional to the number of surviving cells. The percentage of inhibition of the cell survival is calculated in comparison to (i) without cells and with compound (100% inhibition) and (ii) with cells and without compound (no inhibition).
The concentration of the half-maximum inhibition (IC50) is determined with GraphPad Prism (GraphPad Software), whereby the controls are 0% and 100%.

C/C=C/C=C/c1cc2c(Br)c3c(c(O)c2c(=O)[nH]1)[C@]1(CC3)C(=O)c2c(O)c3c(c(O)c2C1=O)C(=O)C(NC)=C(Br)C3=O [Compound 7, (8S)-4′,9,9′-trihydroxy-5,7′-dibromo-6′-methylamino-3-[(1E,3E)-penta-1,3-dienyl]-6,7-dihydrospiro[cyclopenta[g]-isoquinoline-8,2′-cyclopenta[b]-naphthalene]-1,1′-3′,5′,8′(2H)-pentone]
IC50: 0.19 µM

CON=Cc1cc2c(Br)c3c(c(O)c2c(=O)[nH]1)[C@]1(CC3)C(=O)c2c(O)c3c(c(O)c2C1=O)C(=O)C(N(C)C)=C(Br)C3=O [Compound 13, (8S)-4′,9,9′-trihydroxy-5,7′-dibromo-6′-dimethylamino-1,1′,3′,5′,8′-pentaoxo-1,1′,2,3′,5′,6,7,8′-octahydrospiro-[cyclopenta[g]-isoquinoline-8,2′-cyclopenta[b]naphthalene]-3-carbaldehyde-O-methyloxime]
IC50 (Homo sapiens): 0.3 µM

(8S)-4,9,9′-trihydroxy-5,7′-dibromo-6′-cyclopropylamino-1,1′,3′,5′,8′-pentaoxo-1,1′,2,3′,5′,6,7,8′-octahydrospiro-[cyclopenta[g]-isoquinoline-8,2′-cyclopenta[b]naphthalene]-3-carbaldehyde-O-methyloxime [Compound 12]
IC50: 0.38 µM

C/C=C/C=C/c1cc2c(CN(C)C)c3c(c(O)c2c(=O)[nH]1)[C@@]1(CC3)C(=O)c2c(O)c3c(c(O)c2C1=O)C(=O)C(NC)=CC3=O [Compound 7a, (8S)-4′,9,9′-trihydroxy-5-dimethylaminomethyl-6′-methylamine-3-[(1E,3E)-penta-1,3-dienyl]-6,7-dihydrospiro[cyclopenta[g]-isoquinoline-8,2′-cyclopenta[b]-naphthalene]-1,1′-3′,5′,8′(2H)-pentone]
IC50: 0.66 µM

C/C=C/C=C/c1cc2c(Br)c3c(c(O)c2c(=O)[nH]1)[C@]1(CC3)C(=O)c2c(O)c3c(c(O)c2C1=O)C(=O)C(N1CCOCC1)=C(Br)C3=O [Compound 9, (BS)-4′,9,9′-trihydroxy-5,7′-dibromo-6′-morpholino-3-[(1E,3E)-penta-1,3-dienyl]-6,7-dihydrospiro[cyclopenta[g]-isoquinoline-8,2′-cyclopenta[b]-naphthalene]-1,1′-3′,5′,8′(2H)-pentone]
IC50: 0.67 µM
